Results on 3 compounds are retold here after BindingDB's records for doi:10.1021/jm0491039 (University of Washington At Seattle, 2005).

Assay [1] has as its target Protein farnesyltransferase/geranylgeranyltransferase type-1 subunit alpha (Rattus norvegicus, UniProt Q04631). Nature of the assay: PfPFT and Rat PFT IC50 Determination. On the procedure: (§1) Assays for PFT activity were performed with a PFT-specific scintillation assay (SPA) kit (Amersham Biosciences, Piscataway, NJ). IC50 values were calculated using linear regression analysis of the plots of [3H] farnesyl pyrophosphate (FPP) prenylation versus concentration of compounds.

The target in assay [2] is Protein farnesyltransferase/geranylgeranyltransferase type-1 subunit alpha / Protein farnesyltransferase subunit beta (Plasmodium falciparum, UniProt Q5EI73+Q5EI74). Nature of the assay: PfPFT and Rat PFT IC50 Determination. The note with it: pH 7.5; 37 °C. The protocol: as §1
Sequence of Protein farnesyltransferase/geranylgeranyltransferase type-1 subunit alpha / Protein farnesyltransferase subunit beta (Q5EI73 1-521): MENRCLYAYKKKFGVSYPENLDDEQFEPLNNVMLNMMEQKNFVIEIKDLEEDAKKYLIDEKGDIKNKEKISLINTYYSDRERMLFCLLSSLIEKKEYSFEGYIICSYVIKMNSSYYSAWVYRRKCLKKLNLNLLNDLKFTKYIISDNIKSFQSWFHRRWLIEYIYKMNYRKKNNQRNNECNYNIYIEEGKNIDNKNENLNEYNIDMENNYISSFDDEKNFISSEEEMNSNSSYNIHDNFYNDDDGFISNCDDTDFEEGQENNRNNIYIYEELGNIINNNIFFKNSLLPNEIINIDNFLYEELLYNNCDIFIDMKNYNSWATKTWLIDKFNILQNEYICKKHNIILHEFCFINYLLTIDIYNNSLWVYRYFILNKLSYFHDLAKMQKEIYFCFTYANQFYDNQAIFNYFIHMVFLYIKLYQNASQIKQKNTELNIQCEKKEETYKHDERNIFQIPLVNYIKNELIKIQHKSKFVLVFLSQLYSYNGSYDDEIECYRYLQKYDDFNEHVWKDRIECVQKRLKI
Sequence of Protein farnesyltransferase/geranylgeranyltransferase type-1 subunit alpha / Protein farnesyltransferase subunit beta (Q5EI74 1-923): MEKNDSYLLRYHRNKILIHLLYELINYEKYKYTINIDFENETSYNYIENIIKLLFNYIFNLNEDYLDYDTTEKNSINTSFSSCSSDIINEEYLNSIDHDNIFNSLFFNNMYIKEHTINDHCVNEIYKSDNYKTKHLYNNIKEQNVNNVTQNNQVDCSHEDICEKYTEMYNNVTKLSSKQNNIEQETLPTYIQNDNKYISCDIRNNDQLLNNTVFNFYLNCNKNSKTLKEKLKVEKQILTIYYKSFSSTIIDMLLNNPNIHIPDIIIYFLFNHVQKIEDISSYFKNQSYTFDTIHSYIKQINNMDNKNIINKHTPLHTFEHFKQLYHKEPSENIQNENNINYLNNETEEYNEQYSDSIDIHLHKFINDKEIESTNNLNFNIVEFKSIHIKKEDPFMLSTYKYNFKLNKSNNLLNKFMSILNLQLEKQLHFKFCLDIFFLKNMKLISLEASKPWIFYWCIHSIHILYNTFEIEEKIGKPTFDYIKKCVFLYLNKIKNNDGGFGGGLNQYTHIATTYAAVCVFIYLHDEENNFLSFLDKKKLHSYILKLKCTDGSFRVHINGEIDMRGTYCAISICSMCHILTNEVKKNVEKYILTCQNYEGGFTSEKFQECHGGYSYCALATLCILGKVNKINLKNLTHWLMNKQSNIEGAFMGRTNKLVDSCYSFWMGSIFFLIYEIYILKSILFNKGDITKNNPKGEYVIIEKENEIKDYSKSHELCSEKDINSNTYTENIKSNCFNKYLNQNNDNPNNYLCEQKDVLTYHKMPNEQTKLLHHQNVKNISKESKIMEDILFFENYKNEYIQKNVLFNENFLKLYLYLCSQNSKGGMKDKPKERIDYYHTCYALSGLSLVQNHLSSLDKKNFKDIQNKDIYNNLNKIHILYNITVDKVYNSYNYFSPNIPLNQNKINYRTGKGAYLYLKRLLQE

Each structure is given as a SMILES string. pIC50: −log10 of the molar value.

What is called pIC50 is the negative decadic logarithm of the IC50, by convention in mol/L. Regarding `[C-]#[N+]c1ccc2c(c1)CC(N(CC(=O)NC(C)(C)C)S(=O)(=O)c1cccnc1)CN2Cc1cncn1C` (stereo unspecified) [N-tert-Butyl-2-[[6-isocyano-1-(3-methyl-3H-imidazol-4-ylmethyl)-1,2,3,4-tetrahydroquinolin-3-yl]-(pyridine-3-sulfonyl)amino]acetamide], the pIC50 in assay [1] is 8.22; in assay [2], 7.60.
The like results for `[C-]#[N+]c1ccc2c(c1)CC(N(CC(=O)NC(C)(C)C)S(=O)(=O)c1ccncc1)CN2Cc1cncn1C` (stereo unspecified) [N-tert-Butyl-2-[[6-isocyano-1-(3-methyl-3H-imidazol-4-ylmethyl)-1,2,3,4-tetrahydroquinolin-3-yl]-(pyridine-4-sulfonyl)amino]acetamide] were, in that order, 6.80 and 6.00.
For the compound `[C-]#[N+]c1ccc2c(c1)CC(N(CC(=O)NC(C)(C)C)S(=O)(=O)c1ccccn1)CN2Cc1cncn1C` (stereo unspecified) [N-tert-butyl-2-({6-isocyano-1-[(1-methyl-1H-imidazol-5-yl)methyl]-1,2,3,4-tetrahydroquinolin-3-yl}(pyridine-2-)sulfonamido)acetamide], the pIC50 in assay [1] was 8.74; in assay [2], 8.85.
